Here are results for 7 compounds from article PMC5983452 (PLoS ONE, 2018).

Where two headings read alike, the source gives them in different places. Bounds are passed on as bounds.

One experiment deals with KYSE-150. As to the kind of experiment: Cell proliferation, KYSE-150. In kind it is cell-based. The note with it: Homo sapiens, read-out: Cellular Proliferation IC50. Here is the method: (§1) Cell lines used in these experiments were obtained from the following sources and were cultured according to conditions specified by the respective cell banks. […] The cell lines listed above were tested for mycoplasma and were negative. Cells were authenticated by STR method or vendor protocols. All 313 cell lines in the CRIPSR pooled screen were purchased from commercial vendors and were STR authenticated and mycoplasma negative. A broad panel of cancer cell lines was screened in the Eurofins Oncopanel. All cells in this panel were mycoplasma negative and STR verified.
Thus, 5 compounds representing 4 distinct pharmacophore series of SMYD2 inhibitors are now available for testing the dependence of cancer lines on SMYD2 activity. […] In stark contrast, however, no correlation is seen between the potency for BTF3 methylation inhibition and anti-proliferative activity among these compounds (Fig 3B).

Experiment [1] addresses T1, SMYD2 (Homo sapiens, UniProt Q9NRG4). As to the kind of experiment: SMYD2 biochemical methylation assay (3H-SAM, H3,1–29 peptide, flashplate). Further details: Full length FLAG-SMYD2 and C-terminally Avi-tagged full length SMYD2 (SMYD2-Avi) were cloned into pFastbac vectors; FLAG (N); His tag with TEV cleavage site (N, cleaved yes); made in house; host or cells: Sf9 insect cells (baculovirus). Here is the method:
Full length FLAG-SMYD2 and C-terminally Avi-tagged full length SMYD2 (SMYD2-Avi) were cloned into pFastbac vectors containing an N-terminal His tag with TEV cleavage site. Virus production was performed using standard protocols and the proteins were coexpressed in either Sf9 (SMYD2) or Hi Five (SMYD2-Avi) cells. After harvest by centrifugation, cell pellets for both proteins were resuspended, sonicated, and then centrifuged to remove cell debris. Protein was purified using nickel affinity chromatography before and after TEV cleavage in a similar fashion as SMYD3. […] SMYD2-Avi was biotinylated using His-tagged BirA enzyme after dialysis into a low salt buffer and the BirA was removed with a final nickel affinity column. […] SMYD3 assays were performed as previously described using N-terminally GST-tagged MAP3K2 protein substrate. […] Reactions were conducted at room temperature with enzyme and inhibitor incubated for 30 minutes before initiating the reaction with substrates. Dose-response curves were tested in duplicate in each experiment. […] Quenched reactions were transferred to a streptavidin-coated flashplate (Perkin Elmer) for capture of the biotinylated peptide. After 2 h incubation at room temperature, the flashplate was washed once with 0.1% Tween-20 and read on a Perkin Elmer Topcount NXT plate reader. Substrate apparent KM values were determined by measuring the initial velocities (v0) in duplicate while varying one substrate at fixed concentration of the second substrate. […] Percent inhibition by compound (% inh) was calculated from Eq 3 %inh=(1-([…] the signal in the presence of compound and max and min are the signals for the DMSO and background controls respectively. […] Mechanism of inhibition was determined by measuring the inhibitor IC50 values while varying the concentration of one substrate at a fixed concentration of the second substrate equal to its KM value. The inhibition constant Ki was calculated from fitting the IC50 versus varied substrate concentration data using the Cheng-Prusoff equations for mixed-type and noncompetitive inhibition below. α is the coefficient accounting for differences in inhibitor affinity between binding enzyme forms after versus before substrate binding.

The target in experiment [2] is T1, SMYD2. As to the kind of experiment: Intracellular BTF3 monomethylation (BTF3me1) western blot. In kind it is cell-based. Further details: endogenous in cells; host or cells: 313 cancer cell lines. The note with it: read-out: Intracellular Methylation IC50. How it is done: Cells were lysed in 1X RIPA Buffer containing 10% SDS and Halt™ Protease Inhibitor Cocktail (Thermo Fisher Scientific) and incubated on ice for 30 minutes before sonication (Amplitude 20%/10sec) twice. Lysates were spun at […] at 4°C for 10min and normalized for protein concentration by BCA assay (Thermo Fisher Scientific). […] Blots were imaged using the Odyssey Imaging System (LICOR Biosciences). […] BTF3me1 is a custom generated polyclonal antibody, affinity purified from serum of rabbits injected with adjuvant conjugated peptide corresponding to methylated K1 of BTF3 (K(Me)-[…]).
SMYD2 catalyzes the methylation of lysine residues on several proteins, including BTF3 [40].

Experiment [3] concerns cell lines found to be sensitive to LLY-507. The note with it: cited from earlier work.
For the next experiment, the system named is several cell lines. Particulars: cited from earlier work.
Experiment [4] concerns the target T2, SMYD3 (Homo sapiens, UniProt Q9H7B4).
T2 sequence (Q9H7B4 1-428): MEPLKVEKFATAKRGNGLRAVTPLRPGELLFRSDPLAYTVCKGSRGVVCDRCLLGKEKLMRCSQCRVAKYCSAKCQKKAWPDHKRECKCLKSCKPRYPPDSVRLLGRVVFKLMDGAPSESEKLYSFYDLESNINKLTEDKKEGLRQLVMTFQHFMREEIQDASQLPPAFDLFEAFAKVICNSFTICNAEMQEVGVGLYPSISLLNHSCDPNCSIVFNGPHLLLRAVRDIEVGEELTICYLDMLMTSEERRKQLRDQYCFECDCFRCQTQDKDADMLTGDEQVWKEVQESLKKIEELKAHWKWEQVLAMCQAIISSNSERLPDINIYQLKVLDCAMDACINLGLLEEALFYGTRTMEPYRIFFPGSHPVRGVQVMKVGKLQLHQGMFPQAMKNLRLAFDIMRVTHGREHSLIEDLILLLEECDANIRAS
The note with it: read-out: Kd for binding to SMYD3; cited from earlier work.

Experiment [5] deals with T2, SMYD3. More on the design: Protein purification of both isoforms of full length SMYD3 was performed as previously reported; made in house; method as in Mitchell et al (2016). The note with it: read-out: Biochemical IC50, ref Mitchell et al (2016); cited from earlier work.
The target of experiment [6] is T2, SMYD3. Further details: endogenous in cells; host or cells: 313 cancer cell lines; method as in Mitchell et al (2016). The note with it: read-out: Intracellular Methylation IC50; MAP3K2 methylation; ref Mitchell et al (2016); cited from earlier work.
Experiment [7] relates to panel of 240 cancer cell lines. Kind of experiment: Proliferation in a broad panel of 240 cancer cell lines, 2D culture (Eurofins Panlabs Oncopanel). In kind it is cell-based. The note with it: for IC50: read-out: anti-proliferative IC50 across the panel of 240 cancer cell lines, 2D culture. How it is done:
as §1

Experiment [8] deals with T2, SMYD3. As to the kind of experiment: SMYD3 biochemical methylation assay (3H-SAM, GST-MAP3K2/MEKK2 substrate). Further details: Protein purification of both isoforms of full length SMYD3 was performed as previously reported; made in house. Particulars: tested in duplicate; read-out: selectivity panel result, SMYD3 (off-target). Here is the method: SMYD3 assays were performed as previously described using N-terminally GST-tagged MAP3K2 protein substrate. […] Reactions were conducted at room temperature with enzyme and inhibitor incubated for 30 minutes before initiating the reaction with substrates. Dose-response curves were tested in duplicate in each experiment. […] Quenched reactions were transferred to a streptavidin-coated flashplate (Perkin Elmer) for capture of the biotinylated peptide. After 2 h incubation at room temperature, the flashplate was washed once with 0.1% Tween-20 and read on a Perkin Elmer Topcount NXT plate reader. Substrate apparent KM values were determined by measuring the initial velocities (v0) in duplicate while varying one substrate at fixed concentration of the second substrate.
Mechanism of inhibition was determined by measuring the inhibitor IC50 values while varying the concentration of one substrate at a fixed concentration of the second substrate equal to its KM value.

A further experiment deals with several enzymes. Further details: method as in http://www.chemicalprobes.org. The note with it: ref http://www.chemicalprobes.org; cited from earlier work.
Experiment [9] deals with T1, SMYD2. The note with it: read-out: apparent SAM KM (reported); p53 peptide substrate, pH 9.0; 2 (supplemental references); cited from earlier work.
[10] abbreviates: SMYD2, 20 nM SAM, 60 nM H3,1–29 peptide, read-out: Biochemical IC50.

T1 sequence (Q9NRG4 whole entry): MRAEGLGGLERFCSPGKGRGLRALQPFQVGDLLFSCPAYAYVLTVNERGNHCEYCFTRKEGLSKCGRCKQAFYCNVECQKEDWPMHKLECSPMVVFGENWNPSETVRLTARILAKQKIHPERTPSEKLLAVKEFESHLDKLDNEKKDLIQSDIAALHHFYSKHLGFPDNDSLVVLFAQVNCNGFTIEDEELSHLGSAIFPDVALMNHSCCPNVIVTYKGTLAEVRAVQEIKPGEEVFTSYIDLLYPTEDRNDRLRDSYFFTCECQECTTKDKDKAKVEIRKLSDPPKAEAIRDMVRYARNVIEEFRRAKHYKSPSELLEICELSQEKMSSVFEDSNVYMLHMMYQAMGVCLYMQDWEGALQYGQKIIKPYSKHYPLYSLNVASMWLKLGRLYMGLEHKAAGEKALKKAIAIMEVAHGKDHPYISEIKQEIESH

As for `O=C1COc2c(CCNCCN(C(=O)CCNCCc3ccc(Cl)c(Cl)c3)C3CCCCC3)ccc(O)c2N1` [AZ505, reference compound], the values for the IC50 in the experiment with KYSE-150, at SMYD2 [1] (setting [10]) and on SMYD2 [2] were 12800 nM, 51 nM and 13900 nM, respectively.

With `CCN(C(=O)CO)[C@H]1CN(/C(=N\C#N)Nc2cccc(OC(F)F)c2)N=C1c1ccc(Cl)c(Cl)c1` [BAY-598], the “impact on cell proliferation or induction of apoptosis” value in experiment [3] (cell lines found to be sensitive to LLY-507) is recorded as “little impact”. Besides, the IC50 in experiment [3] (ref Eggert et al (2016), read-out: Cellular Proliferation IC50) was > 20000 nM.

The term Kd denotes the equilibrium constant for the complex coming apart. Regarding `NC(=O)C1CCN(CC(=O)Nc2ccc(Br)cc2)CC1` [BCI-121], the “inhibition of proliferation of several cell lines” value in the experiment with several cell lines (at 100 µM) is 20–30%. Besides, in the experiment on several cell lines (ref Peserico et al (2015), read-out: Cellular Proliferation IC50), the IC50 is > 100000 nM. Besides, at SMYD3 [4], the Kd is 11800 nM.

On to `O=C1Cc2cc(C(=O)NC3CC4CCC(C3)N4S(=O)(=O)CC3CCN(CCCC(F)(F)F)CC3)c(Cl)cc2N1` (stereo not shown) [EPZ031686], for which the IC50 at SMYD3 [5] was 3 nM; on SMYD3 [6], 36 nM.

As usually defined, the Ki is the dissociation constant of the complex between target and ligand, obtained from inhibition or displacement. As for `O=C(NC1CN(Cc2cnn(Cc3ccccc3)c2)C1)c1cn(C2CC2)nn1` [EPZ032597], the “growth inhibition on repeat testing of hematologic cancer cell lines” value in experiment [7] (cell lines with lower IC50 in the initial screen) is reported as < 50%. In addition, the IC50 in experiment [7] was > 10000 nM; with KYSE-150 it was > 40000 nM; on SMYD2 [1] (IC50 at 20 nM SAM, 1 nM SMYD2, 60 nM H3,1-29, 20 nM SAM), 21 ± 2 nM; on SMYD2 [1] (IC50 at 200 nM SAM, 1 nM SMYD2, 60 nM H3,1-29, 200 nM SAM), 25 ± 5 nM; at SMYD2 [1] (setting [10]) it was 16 nM; at SMYD2 [2], 31 nM. For the same compound, the IC50 on SMYD3 [8] was > 10000 nM. Besides, at SMYD2 [1] (1 nM enzyme, 20 nM SAM, varied H3,1–29), the “mechanism of inhibition with respect to peptide substrate” value is “noncompetitive”. In addition, the Ki at SMYD2 [1] (varied H3,1–29 peptide, Eq 6, read-out: Ki (noncompetitive versus peptide)) worked out at 21.5 ± 1.5 nM.

As for `Cc1cn(CCN2CCN(c3ccccc3-c3cc(C#N)cc(C(=O)NCCCN4CCCC4)c3)CC2)c2ccccc12` [LLY-507, reference compound], the “inhibition of several enzymes (off-target potency)” value with several enzymes is < 1000 nM. Further, the IC50 in [7] was 1000 to 5000 nM; in the experiment with KYSE-150, 1800 nM.

As usually defined, the Km is the concentration of substrate that gives half-maximal velocity. With `C[S+](CC[C@H](N)C(=O)[O-])C[C@H]1O[C@@H](n2cnc3c(N)ncnc32)[C@H](O)[C@@H]1O` (stereo partly drawn) [SAM, S-(5’adenosyl)-L-methionine], the Michaelis-Menten constant (Km) at SMYD2 [9] was 0.03 to 0.06 µM; on SMYD2 [1] (1 nM SMYD2, 60 nM H3,1–29, Eq 2, upper limit for the true KM, read-out: apparent KM for SAM), 0.00034 ± 7e-05 µM.
